The record followed here is patent publication US8765733B2, “Amine substituted methanesulfonamide derivatives as vanilloid receptor ligands” (Gruenenthal GmbH, priority 2011, dated 2014).

In general, Ki refers to a dissociation constant, usually derived from enzyme kinetics or from competition with a known ligand. Usually inhibition stands for the share of the control response that was lost under treatment.

This assay concerns the target vanilloid receptor 1 (VR1/TRPV1 receptor) (Homo sapiens, UniProt Q8NER1). In words: FLIPR functional assay (Ca2+ influx, capsaicin) on the vanilloid receptor 1. Format: cell-based. Particulars: capsaicin (Cap) stimulus.

Regarding `CC1CCN(c2nc(C(F)(F)F)ccc2CNC(=O)C(C)c2ccc(CNS(N)(=O)=O)c(F)c2)CC1` (stereo not drawn) [Example 64, 2-(3-fluoro-4-((sulfamoylamino)methyl)phenyl)-N-((2-(4-methylpiperidin-1-yl)-6-(trifluoromethyl)pyridin-3-yl)methyl)propanamide], the Ki (functional (f), Ki from IC50 by Cheng-Prusoff, read-out: (f) Ki (human being) [nM] Cap) came to 4 nM.

Turning to `CC1CCN(c2nc(C(F)(F)F)ccc2CNC(=O)C(C)c2ccc(F)c(CNS(C)(=O)=O)c2)CC1` (stereo not drawn) [Example 66, 2-(4-fluoro-3-(methylsulfonamidomethyl)phenyl)-N-((2-(4-methylpiperidin-1-yl)-6-(trifluoromethyl)pyridin-3-yl)methyl)propanamide], under “compound at 5 μM, read-out: inhibition (as a percentage) Cap, (human being)”, the inhibition at 5 µM amounted to 58%.

As to “N-(2-fluoro-5-(3-((2-(4-methylpiperidin-1-yl)-6-(trifluoromethyl)pyridin-3-yl)methyl)ureido)benzyl)methanesulfonamide [Example 65]”, the “inhibition (as a percentage) Cap, (human being)” value (compound at 5 μM) amounted to 12%@5 μM.
